Measurements taken from ChEMBL document CHEMBL5614423, “Proximal fleximer analogues of 2'-deoxy-2'-fluoro-2'-methyl purine nucleos(t)ides: Synthesis and preliminary pharmacokinetic and antiviral evaluation” (Bioorg Med Chem, 2024).
pEC50: −log10 of the molar value. The source made the active and inactive calls. No cut-off for these calls is given here.

Experiments:
[1] = tested on: Middle East respiratory syndrome-related coronavirus; test: Antiviral activity against MERS CoV upto 100 uM; assay type: functional, organism-based
Cytomegalovirus = test: Antiviral activity against Cytomegalovirus upto 150 uM; assay type: functional, organism-based
dengue virus type 2 = test: Antiviral activity against Dengue virus 2 upto 100 uM; assay type: functional, organism-based
Chikungunya virus = test: Antiviral activity against Chikungunya virus upto 100 uM; assay type: functional, organism-based
Nipah virus = test: Antiviral activity against Nipah virus upto 100 uM; assay type: functional, organism-based; details: Henipavirus nipahense
Human gammaherpesvirus 4 = test: Antiviral activity against Epstein Barr virus upto 150 uM; assay type: functional, organism-based
Zaire ebolavirus [2] = test: Antiviral activity against Zaire Ebola virus; assay type: functional, organism-based
Human alphaherpesvirus 1 = test: Antiviral activity against HSV 1 upto 150 uM; assay type: functional, organism-based
[3] = Toxicity in CD-1 mouse assessed as drug tolerance at 100 to 300 mg/kg, ip for 3 days; assay type: organism-based; details: in vivo, 72 h, dose 100-300 mg/kg, time 3 day
[4] = Half life in CD-1 mouse at 100 mg/kg by MS analysis; assay type: ADME, organism-based; details: in vivo
[5] = AUC in CD-1 mouse at 100 mg/kg measured for 24 hrs by MS analysis; assay type: ADME, organism-based; details: in vivo
Zaire ebolavirus [6] = test: Antiviral activity against Zaire Ebola virus upto 100 uM; assay type: functional, organism-based
[7] = Toxicity in CD-1 mouse assessed as occurence of adverse event at 100 to 300 mg/kg, ip for 3 days; assay type: organism-based; details: in vivo, 72 h, dose 100-300 mg/kg, time 3 day

Compound | Activity [1] | Activity (Cytomegalovirus) | Activity (dengue virus type 2) | Activity (Chikungunya virus) | Activity (Nipah virus) | Activity (Human gammaherpesvirus 4) | pEC50 (Zaire ebolavirus [2]) | Activity (Human alphaherpesvirus 1) | Activity [3] | half-life [4] | AUC [5] | Activity (Zaire ebolavirus [6]) | Activity [7]
CNc1nc(N)ncc1-c1cn([C@@H]2O[C@H](CO[P@@](=O)(N[C@@H](C)C(=O)OC(C)C)Oc3ccccc3)[C@@H](O)[C@@]2(C)F)cn1 | inactive | inactive | inactive | inactive | inactive | inactive | 4.52 | inactive |  |  |  |  | 
CNc1nc(N)ncc1-c1cn([C@@H]2O[C@H](CO)[C@@H](O)[C@@]2(C)F)cn1 | inactive | inactive | inactive | inactive | inactive | inactive |  | inactive | Non-Toxic | 1 h | 36000 ng·h/mL | inactive | Non-Toxic
